Data published in PubChem BioAssay AID1963832 (Molecular Pharmacology Branch, DTP, NCI, 2024).

Tested on: 885724-159-R-J1-PDC complex spheroid viability
Experiment: Anticancer human tumor 885724-159-R-J1-PDC patient-derived pancreatic adenocarcinoma cell line growth inhibition [POLQ]
Details: for IC50: curve of first compound; for viability, T/C: stronger effect = lower value
In short: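 Three-cell-type spheroids modelling solid tumor plus stroma served as the readout system; POL inhibitors were tested individually and in combination, concentration ranges set by clinical Cmax where known.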

[1] = second compound 0.0316 µM, first compound 0.0316 µM
[2] = second compound 0.0316 µM, first compound 0.1 µM
[3] = second compound 0.0316 µM, first compound 0.316 µM
[4] = second compound 0.0316 µM, first compound 1 µM
[5] = second compound 0.1 µM, first compound 0.0316 µM
[6] = second compound 0.1 µM, first compound 0.1 µM
[7] = second compound 0.1 µM, first compound 0.316 µM
[8] = second compound 0.1 µM, first compound 1 µM
[9] = second compound 0.316 µM, first compound 0.0316 µM
[10] = second compound 0.316 µM, first compound 0.1 µM
[11] = second compound 0.316 µM, first compound 0.316 µM
[12] = second compound 0.316 µM, first compound 1 µM
[13] = second compound 1 µM, first compound 0.0316 µM
[14] = second compound 1 µM, first compound 0.1 µM
[15] = second compound 1 µM, first compound 0.316 µM
[16] = second compound 1 µM, first compound 1 µM
[17] = second compound 3.16 µM, first compound 0.0316 µM
[18] = second compound 3.16 µM, first compound 0.1 µM
[19] = second compound 3.16 µM, first compound 0.316 µM
[20] = second compound 3.16 µM, first compound 1 µM
[21] = second compound 10 µM, first compound 0.0316 µM
[22] = second compound 10 µM, first compound 0.1 µM
[23] = second compound 10 µM, first compound 0.316 µM
[24] = second compound 10 µM, first compound 1 µM
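Also: spheroids exposed to compounds for 7 days.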

CCc1c2c(nc3ccc(O)cc13)-c1cc3c(c(=O)n1C2)COC(=O)[C@]3(O)CC + Nc1ccc(C#CCN(C(=O)Cc2ncc(C(F)(F)F)cc2C(F)(F)F)c2ccc(F)cc2)nn1
IC50 (second compound 0.0316 µM): 91.9 nM | IC50 (second compound 0.1 µM): 55.9 nM | IC50 (second compound 0.316 µM): 45.8 nM | IC50 (second compound 1 µM): 81.8 nM | IC50 (second compound 3.16 µM): 59 nM | IC50 (second compound 10 µM): 120 nM | viability, T/C (second compound 0.0316 µM, first compound 0.00316 µM): 73.5% | viability, T/C (second compound 0.0316 µM, first compound 0.01 µM): 60.1% | viability, T/C [1]: 58% | viability, T/C [2]: 51.4% | viability, T/C [3]: 33.5% | viability, T/C [4]: 5.95% | viability, T/C (second compound 0.1 µM, first compound 0.00316 µM): 82.2% | viability, T/C (second compound 0.1 µM, first compound 0.01 µM): 63.5% | viability, T/C [5]: 52.3% | viability, T/C [6]: 48.1% | viability, T/C [7]: 33.2% | viability, T/C [8]: 6.65% | viability, T/C (second compound 0.316 µM, first compound 0.00316 µM): 83.1% | viability, T/C (second compound 0.316 µM, first compound 0.01 µM): 63.6% | viability, T/C [9]: 48.1% | viability, T/C [10]: 46.1% | viability, T/C [11]: 32.7% | viability, T/C [12]: 6.56% | viability, T/C (second compound 1 µM, first compound 0.00316 µM): 76.3% | viability, T/C (second compound 1 µM, first compound 0.01 µM): 63% | viability, T/C [13]: 49% | viability, T/C [14]: 51.4% | viability, T/C [15]: 37.7% | viability, T/C [16]: 5.34% | viability, T/C (second compound 3.16 µM, first compound 0.00316 µM): 78.8% | viability, T/C (second compound 3.16 µM, first compound 0.01 µM): 65.1% | viability, T/C [17]: 51.4% | viability, T/C [18]: 47.2% | viability, T/C [19]: 34.6% | viability, T/C [20]: 5.06% | viability, T/C (second compound 10 µM, first compound 0.00316 µM): 72.8% | viability, T/C (second compound 10 µM, first compound 0.01 µM): 58.6% | viability, T/C [21]: 53.6% | viability, T/C [22]: 55.1% | viability, T/C [23]: 39.3% | viability, T/C [24]: 5.13%

CC1COCCN1c1cc(C2(O)CC3CCC(C2)O3)c2cnn(-c3ccn[nH]3)c2n1 (centres undefined) + COC1C(OC(N)=O)C(O)C(Oc2ccc3c(O)c(NC(=O)c4ccc(O)c(CC=C(C)C)c4)c(=O)oc3c2C)OC1(C)C
IC50 (second compound 0.0316 µM): 139 nM | IC50 (second compound 0.1 µM): 150 nM | IC50 (second compound 0.316 µM): 98.2 nM | IC50 (second compound 1 µM): 139 nM | IC50 (second compound 3.16 µM): 96 nM | IC50 (second compound 10 µM): 102 nM | viability, T/C [1]: 74.7% | viability, T/C [2]: 49.8% | viability, T/C [3]: 38.8% | viability, T/C [4]: 41.8% | viability, T/C (second compound 0.0316 µM, first compound 3.16 µM): 31.5% | viability, T/C (second compound 0.0316 µM, first compound 10 µM): 23.2% | viability, T/C [5]: 73.3% | viability, T/C [6]: 51.4% | viability, T/C [7]: 40% | viability, T/C [8]: 41.4% | viability, T/C (second compound 0.1 µM, first compound 3.16 µM): 31.9% | viability, T/C (second compound 0.1 µM, first compound 10 µM): 24.7% | viability, T/C [9]: 63.1% | viability, T/C [10]: 50.4% | viability, T/C [11]: 39% | viability, T/C [12]: 34.8% | viability, T/C (second compound 0.316 µM, first compound 3.16 µM): 32.5% | viability, T/C (second compound 0.316 µM, first compound 10 µM): 28.6% | viability, T/C [13]: 75.1% | viability, T/C [14]: 52% | viability, T/C [15]: 39.7% | viability, T/C [16]: 38.1% | viability, T/C (second compound 1 µM, first compound 3.16 µM): 31.2% | viability, T/C (second compound 1 µM, first compound 10 µM): 25.4% | viability, T/C [17]: 68.1% | viability, T/C [18]: 44.8% | viability, T/C [19]: 42.5% | viability, T/C [20]: 35.8% | viability, T/C (second compound 3.16 µM, first compound 3.16 µM): 31.8% | viability, T/C (second compound 3.16 µM, first compound 10 µM): 26.4% | viability, T/C [21]: 61.1% | viability, T/C [22]: 50.5% | viability, T/C [23]: 40.8% | viability, T/C [24]: 34.5% | viability, T/C (second compound 10 µM, first compound 3.16 µM): 34.9% | viability, T/C (second compound 10 µM, first compound 10 µM): 26.3%
